Data published in patent US8236789B2, “1-adamantyl azetidin-2-one derivatives and drugs containing same” (Kowa Company, Ltd., priority 2008, dated 2012).

Key:
Type in all cases: biochemical
mouse 11β-HSD1 = molecular target: T1, mouse 11β-HSD1 (Mus musculus, UniProt P50172); test: Enzyme inhibitory activity assay, lysate of CHO-K1 cells stably expressing mouse 11β-HSD1, cortisol by competitive ELISA; conditions: Table 2; cell lysate, 100 nmol/L cortisone, NADPH, 37° C. 1 hour; read-out: in vitro assay (IC50 uM) m HSD1
T1 construct: expressed in transfected cells
Procedure: (§1) 1. Human 11β-HSD1-, Human 11β-HSD2- and Mouse 11β-HSD1-Gene Clonings and Establishment of Stably Expressing Cells
(§2) Human 11β-HSD1- and human 11β-HSD2-expressing vectors were transfected into human kidney-derived cell line, HEK293 cells, using a transfection reagent, jet PEI (Funakoshi). Mouse 11β-HSD1 was transfected to Chinese hamster ovary-derived cell line, CHO-K1 cells. Selection was conducted with 200-400 μg/mL of zeocine (Invitrogen) to provide stably expressing-cell clones. The stably expressing cells were suspended in buffer solution A (20 mmol/L Tris-HCl, pH 7.4, 250 mmol/L sucrose, 1 mmol/L EGTA, 1 mmol/L EDTA, 1 mmol/L MgCl2), sonicated, and then stored at −80° C.
(§3) 2. Assay of Enzyme Inhibitory Activity
(§4) An enzymatic reaction was conducted using a polystyrene 96-well plate. Each well was added with 1 μL of a test agent dissolved in DMSO and then diluted (0.003 to 3 mmol/L), and further added with 10 μL of cell lysate diluted to a concentration of 0.1 mg/mL to 0.4 mg/mL. Next, 90 μL of buffer solution A containing substrate (100 nmol/L cortisone or cortisol) and coenzyme (400 μmol/L NADPH or NAD+) was added and the mixture was incubated at 37° C. for 1 hour. The enzymatic reaction was stopped by treating at 95° C. for 3 minutes. Cortisol that was present in the reaction solution was determined by a competitive ELISA shown below.
(§5) Anti-rabbit IgG antibody (Chemi-con) diluted to 2 μg/mL with carbonate buffer solution (pH 9.6) was added in 100 μL each to a 96-well immuno plate (Nunc) and immobilized by an incubation at 4° C. overnight. […] After washed three times with buffer solution B containing 0.05% Tween 20, the plates were allowed to develop color by adding 100 μL, of color reagent, TMB (Moss). The color reaction was stopped by 25 μL of 1 mol/L sulfuric acid and the absorbance was determined at 450 nm with a microplate reader (Molecular Device, VersaMax).

human 11β-HSD2 = molecular target: T2, human 11β-HSD2 (Homo sapiens, UniProt P80365); test: Enzyme inhibitory activity assay, lysate of HEK293 cells stably expressing human 11β-HSD2, cortisol by competitive ELISA; conditions: Table 1; cell lysate, 100 nmol/L cortisol, NAD+, 37° C. 1 hour; read-out: in vitro assay (IC50 uM) h HSD2
T2 construct: expressed in transfected cells
T2 sequence (P80365 1-405): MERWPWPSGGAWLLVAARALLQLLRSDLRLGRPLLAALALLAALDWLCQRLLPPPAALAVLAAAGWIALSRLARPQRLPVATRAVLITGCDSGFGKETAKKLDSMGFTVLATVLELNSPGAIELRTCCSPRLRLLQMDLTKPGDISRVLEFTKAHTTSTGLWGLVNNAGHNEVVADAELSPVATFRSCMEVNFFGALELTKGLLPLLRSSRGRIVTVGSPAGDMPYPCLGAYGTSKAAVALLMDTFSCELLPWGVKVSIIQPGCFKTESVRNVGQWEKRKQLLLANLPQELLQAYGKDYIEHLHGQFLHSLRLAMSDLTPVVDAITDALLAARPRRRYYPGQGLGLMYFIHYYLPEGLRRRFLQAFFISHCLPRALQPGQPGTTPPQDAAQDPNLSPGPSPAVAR
Procedure: as §1
Human 11β-HSD1-, human 11β-HSD2-, and mouse 11β-HSD1-gene clonings were conducted using as a template a reverse transcription product of human-liver RNA, human-kidney RNA (CELL APPLICATIONS), and mouse-kidney RNA respectively, by means of PCR cloning with reference to nucleotide sequences of Genbank Accession Nos. NM_005525, NM_000196, and NM_008288. The obtained PCR products of about 0.9 kbp, 1.2 kbp, and 0.9 kbp were subcloned into an expression vector pcDNA3.1+/Zeo (Invitrogen).
as §2, §3, §4
Anti-rabbit IgG antibody (Chemi-con) diluted to 2 μg/mL with carbonate buffer solution (pH 9.6) was added in 100 μL each to a 96-well immuno plate (Nunc) and immobilized by an incubation at 4° C. overnight. 50 μL of enzymatic reaction solution was put onto the plates, and further, anti-cortisol antibody (Cosmo Bio) and HRP-labeled cortisol (Cosmo Bio), diluted with buffer solution B (25 mmol/L Tris-HCl pH 7.4, 137 mmol/L NaCl, 2.68 mmol/L KCl), were added in 50 μL respectively and incubated at 4° C. overnight. After washed three times with buffer solution B containing 0.05% Tween 20, the plates were allowed to develop color by adding 100 μL, of color reagent, TMB (Moss). The color reaction was stopped by 25 μL of 1 mol/L sulfuric acid and the absorbance was determined at 450 nm with a microplate reader (Molecular Device, VersaMax).
The values of human 11β-HSD1, human 11β-HSD2, and mouse 11β-HSD1 activities were subtracted from 100, and the resultant values were regarded as the respective 11βHSD inhibition rates of example compounds. […] The comparison of human 11β-HSD1 and human 11β-HSD2 inhibiting activities is shown in Table 1, and the comparison of human 11β-HSD1 and mouse 11β-HSD1 inhibiting activities is shown in Table 2.

human 11β-HSD1 = molecular target: T3, human 11β-HSD1 (Homo sapiens, UniProt P28845); test: Enzyme inhibitory activity assay, lysate of HEK293 cells stably expressing human 11β-HSD1, cortisol by competitive ELISA; conditions: Table 1; cell lysate, 100 nmol/L cortisone, NADPH, 37° C. 1 hour; read-out: in vitro assay (IC50 uM) h HSD1
T3 construct: expressed in transfected cells
Procedure: as §1, §2, §3, §4, §5

T1 sequence (P50172 whole entry): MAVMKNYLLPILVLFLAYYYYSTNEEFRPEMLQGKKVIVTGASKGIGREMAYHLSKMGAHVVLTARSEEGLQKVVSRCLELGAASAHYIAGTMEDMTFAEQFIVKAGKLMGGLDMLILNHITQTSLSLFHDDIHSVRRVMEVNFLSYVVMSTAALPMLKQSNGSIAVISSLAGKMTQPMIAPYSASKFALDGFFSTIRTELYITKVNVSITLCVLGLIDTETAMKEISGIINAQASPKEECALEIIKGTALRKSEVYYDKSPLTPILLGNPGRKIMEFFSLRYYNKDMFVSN
T3 sequence (P28845 whole entry): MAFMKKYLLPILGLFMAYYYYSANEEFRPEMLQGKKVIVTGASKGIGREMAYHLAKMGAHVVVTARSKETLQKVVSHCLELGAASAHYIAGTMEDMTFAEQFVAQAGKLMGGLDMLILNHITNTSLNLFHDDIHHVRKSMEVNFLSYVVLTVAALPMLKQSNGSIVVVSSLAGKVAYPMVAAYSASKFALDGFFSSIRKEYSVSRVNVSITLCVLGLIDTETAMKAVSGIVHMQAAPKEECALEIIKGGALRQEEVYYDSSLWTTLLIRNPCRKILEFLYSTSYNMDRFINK

Structure (SMILES)	IC50 (mouse 11β-HSD1) [µM]	IC50 (human 11β-HSD2) [µM]	IC50 (human 11β-HSD1) [µM]
CC1(C)C(=O)N(C2C3CC4CC(C3)CC2C4)C1c1cccc2c1OCCCC2 (stereo not drawn) [Example 68, 1-(adamantan-2-yl)-3,3-dimethyl-4-(benzo[b]oxepan-9-yl)azetidin-2-one]	0.02	3 to 30	0.026
CC1(C)C(=O)N(C2C3CC4CC(C3)CC2C4)C1c1ccccc1Cl (stereo not drawn) [Example 44, 1-(adamantan-2-yl)-3,3-dimethyl-4-(2-chlorophenyl)azetidin-2-one]	0.076	3 to 30	0.0055
CC1(C)C(=O)N(C2C3CC4CC(C3)CC2C4)C1c1ccc(Cl)c(Cl)c1 (stereo not drawn) [Example 26, 1-(adamantan-2-yl)-3,3-dimethyl-4-(3,4-dichlorophenyl)azetidin-2-one]	0.46	> 30	0.013
